Reference: PubChem BioAssay AID192 (DTP/NCI, 2004)
Where “and” joins values, the source holds several entries; their conditions need not be identical. Identical values can stand only once. Inconclusive results and toxic doses are left out. Square brackets hold non-standard residues; d marks the D form. Peptide text beside a SMILES is read from it. * marks the point of attachment. ξ: configuration not given here. Cbz = O=C(OCc1ccccc1)*; ξNle = CCCCC(N)C(=O)O

System: BDF1 mice, B16 melanoma ip, median survival T/C
Assay: NCI In Vivo Anticancer Drug Screen. Data for tumor model B16 Melanoma (intraperitoneal) in B6D2F1 (BDF1) mice
Conditions: endpoint: median survival time, higher = longer survival
Method in brief: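 Antitumor activity is assessed in mice bearing a transplanted tumor, with survival or tumor size compared against vehicle-dosed controls and expressed as T/C.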

[1] = dose: 50.0 mg/kg/injection, schedule: Q01DX009 (ip), vehicle: saline with Tween-80
[2] = dose: 100.0 mg/kg/injection, schedule: Q01DX009 (ip), vehicle: saline with Tween-80
[3] = dose: 200.0 mg/kg/injection, schedule: Q01DX009 (ip), vehicle: saline with Tween-80
[4] = dose: 12.5 mg/kg/injection, schedule: Q01DX009 (ip), vehicle: Klucel (hydroxypropylcellulose) (HPC)
[5] = dose: 25.0 mg/kg/injection, schedule: Q01DX009 (ip), vehicle: Klucel (hydroxypropylcellulose) (HPC)
[6] = dose: 50.0 mg/kg/injection, schedule: Q01DX009 (ip), vehicle: Klucel (hydroxypropylcellulose) (HPC)
[7] = dose: 400.0 mg/kg/injection, schedule: Q01DX009 (ip), vehicle: saline with Tween-80
[8] = dose: 100.0 mg/kg/injection, schedule: Q01DX009 (ip), vehicle: Klucel (hydroxypropylcellulose) (HPC)
[9] = dose: 200.0 mg/kg/injection, schedule: Q01DX009 (ip), vehicle: Klucel (hydroxypropylcellulose) (HPC)
[10] = dose: 2.0 mg/kg/injection, schedule: Q01DX009 (ip), vehicle: saline
[11] = dose: 400.0 mg/kg/injection, schedule: Q01DX009 (ip), vehicle: Klucel (hydroxypropylcellulose) (HPC)

Compound: CCCCCCCCCCCCCCCCCCNC(=O)Nc1c(C)cc(C)cc1C
- T/C (dose: 100.0 mg/kg/injection, schedule: Q01DX009 (ip), vehicle: gum acacia): 88 % of control

Compound: O=C(O)CCS(=O)(=O)CCC(=O)O
- T/C [1]: 102 % of control
- T/C [2]: 100 % of control
- T/C [3]: 102 % of control

Compound: CC1([CH2][Hg][I])CS(=O)(=O)CC(C)([CH2][Hg][I])O1 (configuration not stated)
- T/C (dose: 1.25 mg/kg/injection, schedule: Q01DX009 (ip), vehicle: saline sonified): 97 % of control
- T/C (dose: 2.0 mg/kg/injection, schedule: Q01DX009 (ip), vehicle: saline with Tween-80): 100 % of control
- T/C (dose: 2.5 mg/kg/injection, schedule: Q01DX009 (ip), vehicle: saline sonified): 92 % of control
- T/C (dose: 4.0 mg/kg/injection, schedule: Q01DX009 (ip), vehicle: saline sonified): 102 % of control
- T/C (dose: 4.0 mg/kg/injection, schedule: Q01DX009 (ip), vehicle: saline with Tween-80): 94 % of control
- T/C (dose: 8.0 mg/kg/injection, schedule: Q01DX009 (ip), vehicle: saline sonified): 95 % of control
- T/C (dose: 8.0 mg/kg/injection, schedule: Q01DX009 (ip), vehicle: saline with Tween-80): 100 % of control
- T/C (dose: 16.0 mg/kg/injection, schedule: Q01DX009 (ip), vehicle: saline sonified): 90 % of control
- T/C (dose: 16.0 mg/kg/injection, schedule: Q01DX009 (ip), vehicle: saline with Tween-80): 100 % of control
- T/C (dose: 32.0 mg/kg/injection, schedule: Q01DX009 (ip), vehicle: saline with Tween-80): 94 % of control

Compound: CCC(C)C(NC(=O)OC(C)(C)c1ccc(-c2ccccc2)cc1)C(=O)O (configuration not stated)
- T/C [1]: 94 % of control
- T/C [2]: 94 % of control
- T/C [3]: 91 % of control

Compound: OC1CCCC2CCCNC12 (configuration not stated) (tested in a mixture with another compound)
- T/C (dose: 25.0 mg/kg/injection, schedule: Q01DX009 (ip), vehicle: saline with Tween-80): 90 % of control
- T/C [1]: 95 % of control
- T/C [2]: 86 % of control

Compound: Oc1nc(/N=C2/N=c3ccc(Cl)cc3=N2)[nH]c1O
- T/C [4]: 86 % of control
- T/C [5]: 93 % of control
- T/C [6]: 86 % of control

Compound: CC1=C(/C=C/C(C)=N/NC(N)=O)C(C)(C)CCC1
- T/C (dose: 50.0 mg/kg/injection, schedule: Q04DX003 (ip), vehicle: saline): 112 % of control
- T/C (dose: 100.0 mg/kg/injection, schedule: Q04DX003 (ip), vehicle: saline): 95 % of control
- T/C (dose: 200.0 mg/kg/injection, schedule: Q04DX003 (ip), vehicle: saline): 102 % of control

Compound: [CH3][Sn]([CH3])([CH3])[O]C(=O)CCl
- T/C (dose: 0.02 mg/kg/injection, schedule: Q01DX009 (ip), vehicle: saline): 104 % of control
- T/C (dose: 0.05 mg/kg/injection, schedule: Q01DX009 (ip), vehicle: saline): 107 % of control
- T/C (dose: 0.1 mg/kg/injection, schedule: Q01DX009 (ip), vehicle: saline): 109 % of control
- T/C (dose: 0.19 mg/kg/injection, schedule: Q01DX009 (ip), vehicle: saline): 104 % of control
- T/C (dose: 0.2 mg/kg/injection, schedule: Q01DX009 (ip), vehicle: saline): 93 % of control
- T/C (dose: 0.75 mg/kg/injection, schedule: Q01DX009 (ip), vehicle: saline): 104 % of control

Compound: CCc1cccc[n+]1[O-]
- T/C [7]: 96 % of control
- T/C (dose: 600.0 mg/kg/injection, schedule: Q01DX009 (ip), vehicle: saline with Tween-80): 96 % of control

Compound: CCN(C)c1cc2c3c(c1)CCCN3CCC2
- T/C (dose: 0.63 mg/kg/injection, schedule: Q01DX009 (ip), vehicle: saline): 111 % of control
- T/C (dose: 1.25 mg/kg/injection, schedule: Q01DX009 (ip), vehicle: saline): 95 % of control
- T/C (dose: 2.5 mg/kg/injection, schedule: Q01DX009 (ip), vehicle: saline): 101 % of control
- T/C (dose: 5.0 mg/kg/injection, schedule: Q01DX009 (ip), vehicle: saline): 93 % of control

Compound: O=[N+]([O-])c1ccc2nc(-c3ccccc3)c(-c3ccccc3)nc2c1
- T/C [8]: 102 % of control
- T/C [9]: 88 % of control

Compound: CNC(=O)OCc1c(COC(=O)NC)c(-c2ccccc2)n(C)c1-c1ccccc1
- T/C (dose: 3.12 mg/kg/injection, schedule: Q01DX009 (ip), vehicle: distilled water + Tween-80): 161 % of control
- T/C (dose: 6.25 mg/kg/injection, schedule: Q01DX009 (ip), vehicle: distilled water + Tween-80): 159 % of control
- T/C (dose: 12.5 mg/kg/injection, schedule: Q01DX009 (ip), vehicle: distilled water + Tween-80): 166 % of control
- T/C (dose: 25.0 mg/kg/injection, schedule: Q01DX009 (ip), vehicle: distilled water + Tween-80): 206 % of control

Compound: COC(=O)c1cc([N+](=O)[O-])cc2ccccc12
- T/C [6]: 100 % of control
- T/C [8]: 97 % of control
- T/C [9]: 94 % of control

Compound: Cc1c(N)nc(C(CC(N)=O)NCC(N)C(N)=O)nc1C(=O)NC(C(=O)NC(C)C(O)C(C)C(=O)NC(C(=O)NCCc1nc(-c2nc(C(=O)NCCCNC(C)c3ccccc3)cs2)cs1)C(C)O)C(OC1OC(CO)C(O)C(O)C1OC1OC(CO)C(O)C(OC(N)=O)C1O)c1cnc[nH]1 (configuration not stated)
- T/C (dose: 0.25 mg/kg/injection, schedule: Q01DX009 (ip), vehicle: saline): 105 % of control
- T/C (dose: 0.5 mg/kg/injection, schedule: Q01DX009 (ip), vehicle: saline): 102 % of control
- T/C (dose: 1.0 mg/kg/injection, schedule: Q01DX009 (ip), vehicle: saline): 106 % of control
- T/C [10]: 110 % of control
- T/C (dose: 4.0 mg/kg/injection, schedule: Q01DX009 (ip), vehicle: saline): 108 % of control
- T/C (dose: 8.0 mg/kg/injection, schedule: Q01DX009 (ip), vehicle: saline): 111 % of control

Compound: C[n+]1cccc(NC(=O)c2ccc(NC(=O)c3ccc(C(=O)Nc4ccc(NC(=N)N)cc4)cc3)cc2)c1
- T/C (dose: 0.9 mg/kg/injection, schedule: Q01DX009 (ip), vehicle: saline): 102 % of control
- T/C (dose: 1.3 mg/kg/injection, schedule: Q01DX009 (ip), vehicle: saline): 94 % of control
- T/C [10]: 116 % of control

Compound: O=C(Nc1ccc(C2=NCCCN2)cc1)c1ccc(C(=O)Nc2ccc(C3=NCCCN3)cc2)nc1
- T/C (dose: 5.0 mg/kg/injection, schedule: Q01DX009 (ip), vehicle: saline with Tween-80): 87 % of control
- T/C (dose: 10.0 mg/kg/injection, schedule: Q01DX009 (ip), vehicle: saline with Tween-80): 95 % of control

Compound: CCCCC(NC(=O)OCc1ccccc1)C(=O)NCC(=O)OC (configuration not stated) (Cbz-[ξNle]-Gly-OMe)
- T/C [1]: 96 % of control
- T/C [2]: 115 % of control
- T/C [3]: 112 % of control
- T/C [7]: 92 % of control

Compound: O=C(O)C(=O)O.O=C(O)C(=O)O.OO.OO.[Nb]
- T/C (dose: 3.13 mg/kg/injection, schedule: Q01DX009 (ip), vehicle: water): 100 % of control
- T/C (dose: 6.25 mg/kg/injection, schedule: Q01DX009 (ip), vehicle: water): 101 % of control
- T/C (dose: 12.5 mg/kg/injection, schedule: Q01DX009 (ip), vehicle: water): 103 % of control
- T/C (dose: 25.0 mg/kg/injection, schedule: Q01DX009 (ip), vehicle: water): 112 % of control
- T/C (dose: 50.0 mg/kg/injection, schedule: Q01DX009 (ip), vehicle: water): 96 % of control

Compound: CC(C)(O)c1cccc2c(C(C)(C)O)cccc12
- T/C [8]: 92 % of control
- T/C [9]: 114 % of control
- T/C [11]: 91 % of control

Compound: CC(=O)OCC(COC(C)=O)(COC(C)=O)COC(C)=O
- T/C [2]: 105 % of control
- T/C [3]: 105 % of control
- T/C [7]: 100 % of control

Compound: CCC1OCC(C(Cl)CCl)O1 (configuration not stated)
- T/C [4]: 90 % of control and 97 % of control
- T/C [5]: 88 % of control and 109 % of control
- T/C [6]: 86 % of control and 97 % of control
- T/C [8]: 94 % of control and 105 % of control
- T/C [9]: 89 % of control and 117 % of control
- T/C [11]: 105 % of control

Compound: CCOCCN1CCN(CCCN2c3ccccc3Sc3ccc(C(F)(F)F)cc32)CC1
- T/C (dose: 0.09 mg/kg/injection, schedule: Q01DX009 (ip), vehicle: water): 105 % of control
- T/C (dose: 0.19 mg/kg/injection, schedule: Q01DX009 (ip), vehicle: water): 113 % of control
- T/C (dose: 0.39 mg/kg/injection, schedule: Q01DX009 (ip), vehicle: water): 100 % of control

Compound: N#CCN(CC#N)CC#N
- T/C (dose: 1.56 mg/kg/injection, schedule: Q01DX009 (ip), vehicle: saline): 97 % of control
- T/C (dose: 3.13 mg/kg/injection, schedule: Q01DX009 (ip), vehicle: saline): 102 % of control
- T/C (dose: 3.13 mg/kg/injection, schedule: Q04DX003 (ip), vehicle: saline with Tween-80): 113 % of control
- T/C (dose: 6.25 mg/kg/injection, schedule: Q01DX009 (ip), vehicle: saline): 100 % of control
- T/C (dose: 6.25 mg/kg/injection, schedule: Q04DX003 (ip), vehicle: saline with Tween-80): 94 % of control
